# Reference: PMC9193972, “Candidate Chemosensory Genes Identified in the Adult Antennae of Sympiezomias velatus and Binding Property of Odorant-Binding Protein 15” (Frontiers in Physiology, 2022)
# Assays:
# recombinant SvelOBP15 [1] = assay: Fluorescence competitive binding assay with 1-NPN as fluorescent reporter; parameters: species or system Sympiezomias velatus; conditions: for Ki: calculated from IC50, mean ± SE, read-out: Ki (dissociation constant); for Ki / IC50: 1-NPN 2 μmol/L; for IC50: competitor 2 to 20 μmol/L, concentration halving the fluorescence of 1-NPN; for binding to SvelOBP15 (in words): competitive binding, competitor up to 20 μmol/L
# Description: The whole ORF of SvelOBP15 was successfully validated by RT-PCR and Sanger sequencing and then synthesized (without the signal peptide-encoding region) by Sangon Biotech (Shanghai, China). It was first cloned into the pGEM-T cloning vector (Promega, Madison, United States) and then subcloned into the expression vector pET-30a(+) (Novagen, Darmstadt, Germany). Recombinant SvelOBP15 was expressed in Escherichia coli Transetta (DE3) following induction with 0.5 mM isopropyl-b-D-thiogalactopyranoside (IPTG) after the culture reached an OD600 of 0.4–0.6. Incubation was continued at 37°C with shaking at 220 rpm for an additional 6 h. […] Denaturation and renaturation were performed following previously reported methods ([Liu et al., 2012]). The protein was purified using a HisTrap HP prepacked column (GE Healthcare, Pittsburgh, United States) according to the manufacturer’s instructions, and recombinant enterokinase (rEK) (GenScript Biology Company, Nanjing, China) was used to remove the His-tag. After running the digested protein back through the HisTrap HP prepacked column, the tag-free protein was obtained in the flow-through fraction. Proteins were visualized at all stages of purification by SDS-PAGE.
# (§1) Fluorescence competitive binding assays were performed as reported previously ([Liu et al., 2015]). This assay was conducted on a Hitachi F-7000 fluorescence spectrophotometer with a 1-cm light path quartz cuvette and 10-nm slits for both excitation and emission. The excitation wavelength was 337 nm, and the emission spectrum was recorded between 390 and 460 nm. First, to determine the binding affinities of N-phenyl-1-naphthylamine (1-NPN) to OBP15, the fluorescence intensity values at maximum fluorescence emissions were plotted against the free ligand concentration by titrating increasing concentrations of 1-NPN. The binding curves were linearized using Scatchard plots. Next, competitive binding assays of OBP15 to 33 chemicals (Supplementary Table S2) of different structural characteristics were carried out using 1-NPN as the fluorescent reporter at a concentration of 2 μmol/L, whereas the concentration of each competitor varied from 2 to 20 μmol/L. These chemicals included the volatile components of host plants such as peanut, elm, maize, cotton, etc. ([Hammack, 2001]; [Cardoza et al., 2002]; [Ngumbi et al., 2009]; [Cheng et al., 2010]) and aggregation pheromone components of curculionids ([Gries et al., 1993]; [Hallett et al., 1993]; [Eller et al., 1994]; [Szendrei et al., 2011]). Chemicals were purchased from Sigma-Aldrich (St. Louis, United States) (purity >95% or 90%). Based on the assumption that the activity of proteins was 100% with a saturation stoichiometry of 1:1 (protein: ligand), the dissociation constants (Ki) of the competitors were calculated from the IC50 values (the concentrations of the ligands halving the fluorescence of 1-NPN) using the following equation:
# Ki = [IC50]/(1 + [1-NPN]/K1-NPN) ([Ban et al., 2003]).Where [1-NPN] is the free concentration of 1-NPN and K1-NPN is the dissociation constant of the complex protein/1-NPN.
# Ki values of various compounds (mean ± SE) were subjected to one-way ANOVA followed by Tukey post hoc test for mean comparison using SPSS Statistics 20.0 (SPSS Inc., Chicago, United States).
# recombinant SvelOBP15 [2] = assay: 1-NPN titration (binding curve, Scatchard plot); parameters: species or system Sympiezomias velatus; conditions: titration with increasing 1-NPN, read-out: dissociation constant of 1-NPN
# Description: as §1, with “Based on the assumption that the activity of proteins was 100% with a saturation stoichiometry of 1:1 (protein: ligand), the dissociation constants (Ki) of the competitors were calculated from the IC50 values (the concentrations of the ligands halving the fluorescence of 1-NPN) using the following equation:” left out
# AquaOBP4 = tested on: AquaOBP4; parameters: method as in Wang et al., 2017; conditions: ref Wang et al., 2017; cited from earlier work
# SzeaOBP28 = tested on: SzeaOBP28; parameters: method as in Zhang Y. et al., 2019; conditions: ref Zhang Y. et al., 2019; cited from earlier work
Compound,IC50 (recombinant SvelOBP15 [1]) [µM],further results
C=CC(C)(O)CCC=C(C)CCC=C(C)C (mixture of isomers) [Nerolidol],–,Ki (recombinant SvelOBP15 [1]): 12.9 ± 0.43 µM
Cc1cccc2ccccc12 [1-Methylnaphthalene],> 20,–
"c1ccc(Nc2cccc3ccccc23)cc1 [1-NPN, N-phenyl-1-naphthylamine]",–,Kd (recombinant SvelOBP15 [2]): 4.68 ± 0.16 µM
C=CC(O)CCCCC (stereo not shown) [1-Octen-3-ol],> 20,–
"CC(=O)c1ccc(C)c(C)c1 [3',4'-Dimethylacetophenone]",> 20,–
CCCCC(O)C(C)CC (stereo not shown) [3-Methyl-4-octanol],> 20,–
CCc1ccc(C(C)=O)cc1 [4-Ethylacetophenone],> 20,–
CCCCC(O)C(C)CCC (stereo not shown) [4-Methyl-5-nonanol],> 20,–
CCCCC(=O)C(C)CCC (stereo not shown) [4-Methyl-5-nonanone],> 20,–
"O=C1CCCC1C1CCCC1 (stereo not shown) [(1,1`-Bicyclopentyl)-2-one]",> 20,–
C=C1CC/C=C(\C)CC[C@@H]2[C@@H]1CC2(C)C [(-)-trans-Caryophyllene],> 20,–
"CC(C)=CCC/C(C)=C/CO [(E)-3,7-Dimethyl-2,6-octadien-1-ol]",> 20,–
"CC(C)=CCC/C(C)=C/CC/C(C)=C/CO [(E,E)-Farnesol]",9.26 ± 0.43,Ki (recombinant SvelOBP15 [1]): 7.36 ± 0.36 µM
O=Cc1ccccc1 [Benzalehyde],> 20,–
CC(C)COC(=O)CCCCC(=O)OCC(C)C [Diisobutyl adipate],> 20,–
CC(C)COC(=O)c1ccccc1C(=O)OCC(C)C [Diisobutyl phthalate],15.8 ± 0.42,Ki (recombinant SvelOBP15 [1]): 12.6 ± 0.34 µM; binding to AquaOBP4 (in words) (AquaOBP4): weakly bound
CCCCCCCCCCCC [Dodecane],> 20,binding to SvelOBP15 (in words) (recombinant SvelOBP15 [1]): cannot be bound
CC(C)=CCC/C(C)=C/C(=O)O [Geranic acid],> 20,–

Compound,IC50 (recombinant SvelOBP15 [1]) [µM],further results
C=C(C)[C@H]1CC=C(C)CC1 [Limonene],14.7 ± 0.53,Ki (recombinant SvelOBP15 [1]): 11.7 ± 0.47 µM
C=CC(C)(O)CCC=C(C)C (stereo not shown) [Linalool],> 20,–
COC(=O)c1ccccc1O [Methyl salicylate],> 20,–
CCCCCCCCC=O [Nonanal],> 20,–
CCCCCCCCCCCCCCCC(=O)O [Palmitic acid],> 20,–
CCCCCCCCCCCCCCC [Pentadecane],> 20,binding to SvelOBP15 (in words) (recombinant SvelOBP15 [1]): cannot be bound
CCCCCCCCCCCCCC [Tetradecane],> 20,binding to SvelOBP15 (in words) (recombinant SvelOBP15 [1]): cannot be bound
CC/C=C\CCO [Z-3-hexen-1-ol],> 20,–
COCCOC(=O)c1ccccc1C(=O)OCCOC [bis (2-methoxyethyl) phthalate],–,binding to SzeaOBP28 (in words) (SzeaOBP28): exhibited a binding affinity
CC/C=C\CCOC(C)=O [cis-3-Hexenyl acetate],> 20,–
CCCCCCCCCCCCCCCC [n-Hexadecane],> 20,binding to SvelOBP15 (in words) (recombinant SvelOBP15 [1]): cannot be bound
CCC/C=C/COC(C)=O [trans-2-Hexenyl acetate],> 20,–
CCC/C=C/C=O [trans-2-Hexenyl aldehyde],> 20,–
C=C/C(C)=C/C/C=C(\C)CCC=C(C)C [α-Farnesene],> 20,–
C=C/C(C)=C/CC=C(C)C [β-Ocimene],> 20,–
(+)-α-Pinene,> 20,–
(+)-β-Pinene,> 20,–
